Values of other authors in PubChem BioAssay AID1259409 (Chemical Carcinogenesis Research Information System (CCRIS), 2018).

System: rodent chemically induced tumor inhibition, incidence and multiplicity
Assay: CCRIS tumor inhibitor studies
Conditions: Route [Inhibitor]: ORAL

SMILES: Cc1c(-c2cnccn2)ssc1=S
- tumour outcome (control, treated, inhibition, significance) (Carcinogen: DIETHYLNITROSAMINE, 55-18-5, Dose [Inhibitor]: 0, 600 MG/KG DIET FOR DURATION OF STUDY BEGINNING 1 WK PRIOR TO CARCINOGEN TREATMENT (STUDY DURATION: 25 WK), Species: HAMSTER, Strain/Sex: SYRIAN/MALE, Target Tissue: Type of Lesion: TRACHEA: PAPILLOMA, Dose [Carcinogen]: 17.8 MG/KG BW 2/WK FOR 20 WK, Promoter: NONE USED): 100%, 95%, 5%, not significant
- tumour outcome (control, treated, inhibition, significance) (Carcinogen: N-BUTYL-N(4-HYDROXYBUTYL)NITROSAMINE, 3817-11-6, Dose [Inhibitor]: 0, 250 MG/KG DIET FOR 6 MO BEGINNING 1 WK PRIOR TO CARCINOGEN TREATMENT (STUDY DURATION: 6 MO), Species: MOUSE, Strain/Sex: BDF/MALE, Target Tissue: Type of Lesion: URINARY BLADDER: CARCINOMA, Dose [Carcinogen]: 7.5 MG IN 0.1 ML ETHANOL:WATER (20:80) 1/WK FOR 8 WK, Promoter: NONE USED): 35/78 (45%), 23/76 (30%), 33%, p<0.05
- tumour outcome (control, treated, inhibition, significance) (Carcinogen: N-BUTYL-N-(4-HYDROXYBUTYL)NITROSAMINE, 3817-11-6, Dose [Inhibitor]: 0, 100 MG/KG DIET FOR 6 MO BEGINNING 1 WK PRIOR TO CARCINOGEN TREATMENT (STUDY DURATION: 6 MO), Species: MOUSE, Strain/Sex: BDF/MALE, Target Tissue: Type of Lesion: URINARY BLADDER: CARCINOMA, Dose [Carcinogen]: 7.5 MG IN 0.1 ML ETHANOL:WATER (20:80) 1 WK FOR 8 WK, Promoter: NONE USED): 27/70 (39%), 27/70 (39%), 0%, not significant
- tumour outcome (control, treated, inhibition, significance) (Carcinogen: N-BUTYL-N-(4-HYDROXYBUTYL)NITROSAMINE, 3817-11-6, Dose [Inhibitor]: 0, 200 MG/KG DIET FOR 6 MO BEGINNING 1 WK PRIOR TO CARCINOGEN TREATMENT (STUDY DURATION: 6 MO), Species: MOUSE, Strain/Sex: BDF/MALE, Target Tissue: Type of Lesion: URINARY BLADDER: CARCINOMA, Dose [Carcinogen]: 7.5 MG IN 0.1 ML ETHANOL:WATER (20:80) 1/WK FOR 8 WK, Promoter: NONE USED): 30/73 (41%), 27/71 (38%), 7%, not calculated
- tumour outcome (control, treated, inhibition, significance) (Carcinogen: N-BUTYL-N-(4-HYDROXYBUTYL)NITROSAMINE, 3817-11-6, Dose [Inhibitor]: 0, 500 MG/KG DIET FOR 76 D THEN 125 MG/KG DIET FOR DURATION OF STUDY (STUDY DURATION: 6 MO), Species: MOUSE, Strain/Sex: BDF/MALE, Target Tissue: Type of Lesion: URINARY BLADDER: CARCINOMA, Dose [Carcinogen]: 7.5 MG IN 0.1 ML ETHANOL:WATER (20:80) 1/WK FOR 8 WK, Promoter: NONE USED): 35/78 (45%), 23/78 (29%), 36%, p<0.05
- tumour outcome (control, treated, inhibition, significance) (Carcinogen: N-METHYL-N'-NITRO-N-NITROSOGUANIDINE, 70-25-7, Dose [Inhibitor]: 0, 0.02% IN DIET FOR 12 WK BEGINNING 1 WK PRIOR TO CARCINOGEN TREATMENT (STUDY DURATION: 80 WK), Species: RAT, Strain/Sex: WISTAR/MALE, Target Tissue: Type of Lesion: GLANDULAR STOMACH: ADENOCARCINOMA, Dose [Carcinogen]: 100 PPM IN DRINKING WATER FOR 10 WK, Promoter: NONE USED): 17/30 (57%), 11/30 (37%), 35%, not calculated
- tumour outcome (control, treated, inhibition, significance) (Carcinogen: N-METHYL-N'-NITRO-N-NITROSOGUANIDINE, 70-25-7, Dose [Inhibitor]: 0, 0.04% IN DIET FOR 12 WK BEGINNING 1 WK PRIOR TO CARCINOGEN TREATMENT (STUDY DURATION: 80 WK), Species: RAT, Strain/Sex: WISTAR/MALE, Target Tissue: Type of Lesion: GLANDULAR STOMACH: ADENOCARCINOMA, Dose [Carcinogen]: 100 PPM IN DRINKING WATER FOR 10 WK, Promoter: NONE USED): 17/30 (57%), 5/30 (17%), 70%, p<0.01
- tumour outcome (control, treated, inhibition, significance) (Carcinogen: N-METHYL-N'-NITRO-N-NITROSOGUANIDINE, 70-25-7, Dose [Inhibitor]: 0, 0.04% IN DIET FOR 12 WK BEGINNING 1 WK PRIOR TO CARCINOGEN TREATMENT (STUDY DURATION: 81 WK), Species: RAT, Strain/Sex: WISTAR/MALE, Target Tissue: Type of Lesion: GLANDULAR STOMACH: ADENOCARCINOMA, Dose [Carcinogen]: 100 PPM IN DRINKING WATER FOR 10 WK, Promoter: NONE USED): 17/30 (57%), 5/30 (17%), 70%, p<0.01
- tumour outcome (control, treated, inhibition, significance) (Carcinogen: N-METHYL-N'-NITRO-NITROSOGUANIDINE, 70-25-7, Dose [Inhibitor]: 0, 0.02% IN DIET FOR 12 WK BEGINNING 1 WK PRIOR TO CARCINOGEN TREATMENT (STUDY DURATION: 81 WK), Species: RAT, Strain/Sex: WISTAR/MALE, Target Tissue: Type of Lesion: GLANDULAR STOMACH: ADENOCARCINOMA, Dose [Carcinogen]: 100 PPM IN DRINKING WATER FOR 10 WK, Promoter: NONE USED): 17/30 (57%), 11/30 (37%), 35%, not significant
- outcome (Carcinogen: N-NITROSOBIS(2-OXOPROPYL)AMINE, 60599-38-4, Dose [Inhibitor]: 0, 300 MG/KG IN DIET FOR 28 WK BEGINNING 2 WK PRIOR TO CARCINOGEN TREATMENT (STUDY DURATION: 28 WK), Species: HAMSTER, Strain/Sex: SYRIAN/FEMALE, Target Tissue: Type of Lesion: PANCREAS: DUCTAL ADENOCARCINOMA, Dose [Carcinogen]: 15 MG/KG BW 1/WK FOR 12 WK, Promoter: NONE USED): 17/19 (89%), 14/16 (88%), 1 %, not significant
- tumour outcome (control, treated, inhibition, significance) (Carcinogen: N-NITROSOBIS(2-OXOPROPYL)AMINE, 60599-38-4, Dose [Inhibitor]: 0, 600 MG/KG IN DIET FOR 28 WK BEGINNING 2 WK PRIOR TO CARCINOGEN TREATMENT (STUDY DURATION: 28 WK), Species: HAMSTER, Strain/Sex: SYRIAN/FEMALE, Target Tissue: Type of Lesion: PANCREAS: DUCTAL ADENOCARCINOMA, Dose [Carcinogen]: 15 MG/KG BW 1/WK FOR 12 WK, Promoter: NONE USED): 17/19 (89%), 9/15 (60%), 33%, p<0.05
- tumour outcome (control, treated, inhibition, significance) (Carcinogen: NITROSOBIS(2-OXOPROPYL)AMINE [60599-38-4], Dose [Inhibitor]: 200 PPM IN DIET FOR 4 WK BEGINNING 1 WK PRIOR TO FIRST CARCINOGEN DOSE (STUDY DURATION: 52 WK), Species: HAMSTER, Strain/Sex: SYRIAN/FEMALE, Target Tissue: Type of Lesion: GALL BLADDER: ADENOMA, Dose [Carcinogen]: 10 MG/KG BW 1X/WK FOR 3 WK (STUDY DURATION: 52 WK)): 13.3%, 21.7%, -63%, not significant
- tumour outcome (control, treated, inhibition, significance) (Carcinogen: NITROSOBIS(2-OXOPROPYL)AMINE [60599-38-4], Dose [Inhibitor]: 200 PPM IN DIET FOR 4 WK BEGINNING 1 WK PRIOR TO FIRST CARCINOGEN DOSE (STUDY DURATION: 52 WK), Species: HAMSTER, Strain/Sex: SYRIAN/FEMALE, Target Tissue: Type of Lesion: KIDNEY: RENAL CELL ADENOMA, Dose [Carcinogen]: 10 MG/KG BW 1X/WK FOR 3 WK (STUDY DURATION: 52 WK)): 3.3%, 3.4%, -3%, not significant
- tumour outcome (control, treated, inhibition, significance) (Carcinogen: NITROSOBIS(2-OXOPROPYL)AMINE [60599-38-4], Dose [Inhibitor]: 200 PPM IN DIET FOR 4 WK BEGINNING 1 WK PRIOR TO FIRST CARCINOGEN DOSE (STUDY DURATION: 52 WK), Species: HAMSTER, Strain/Sex: SYRIAN/FEMALE, Target Tissue: Type of Lesion: KIDNEY: RENAL CELL CARCINOMA, Dose [Carcinogen]: 10 MG/KG BW 1X/WK FOR 3 WK (STUDY DURATION: 52 WK)): 6.7%, 10.3%, -54%, not significant
- tumour outcome (control, treated, inhibition, significance) (Carcinogen: NITROSOBIS(2-OXOPROPYL)AMINE [60599-38-4], Dose [Inhibitor]: 200 PPM IN DIET FOR 4 WK BEGINNING 1 WK PRIOR TO FIRST CARCINOGEN DOSE (STUDY DURATION: 52 WK), Species: HAMSTER, Strain/Sex: SYRIAN/FEMALE, Target Tissue: Type of Lesion: LIVER: CHOLANGIOCELLULAR ADENOMA, Dose [Carcinogen]: 10 MG/KG BW 1X/WK FOR 3 WK (STUDY DURATION: 52 WK)): 6.7%, 0.0%, 100%, not significant
- outcome (Carcinogen: NITROSOBIS(2-OXOPROPYL)AMINE [60599-38-4], Dose [Inhibitor]: 200 PPM IN DIET FOR 4 WK BEGINNING 1 WK PRIOR TO FIRST CARCINOGEN DOSE (STUDY DURATION: 52 WK), Species: HAMSTER, Strain/Sex: SYRIAN/FEMALE, Target Tissue: Type of Lesion: LIVER: CHOLANGIOCELLULAR CARCINOMA, Dose [Carcinogen]: 10 MG/KG BW 1X/WK FOR 3 WK (STUDY DURATION: 52 WK)): 0.0%, 10.3%, -100%, not significant
